# According to PMC9709915, “A Single Point Mutation Blocks the Entrance of Ligands to the Cannabinoid CB2 Receptor via the Lipid Bilayer” (Journal of Chemical Information and Modeling, 2022):
# Columns and labels:
# Test in all cases: inhibition of forskolin-stimulated cAMP, Lance-Ultra cAMP kit, HTRF
# Type in all cases: cell-based
# CB2R (hCB2R) [1] = target: T1, CB2R (hCB2R) (Homo sapiens, UniProt P34972, A282F)
# T1 construct: gene CNR2; full-length hCB2R cDNA in pcDNA3.1, transiently expressed in HEK-293T cells; no tag mentioned
# T1 sequence (P34972 whole entry A282F): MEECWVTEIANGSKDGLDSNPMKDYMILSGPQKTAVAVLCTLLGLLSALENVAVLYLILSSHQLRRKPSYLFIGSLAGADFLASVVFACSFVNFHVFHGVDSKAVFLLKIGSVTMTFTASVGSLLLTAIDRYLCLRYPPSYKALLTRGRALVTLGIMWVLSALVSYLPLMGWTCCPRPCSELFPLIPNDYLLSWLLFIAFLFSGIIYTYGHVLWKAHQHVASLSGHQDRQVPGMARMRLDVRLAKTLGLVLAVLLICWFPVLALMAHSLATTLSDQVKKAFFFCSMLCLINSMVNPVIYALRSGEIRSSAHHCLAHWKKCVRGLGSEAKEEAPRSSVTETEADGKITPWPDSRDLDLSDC
# Text: (§1) inhibition of forskolin-stimulated cAMP, Lance-Ultra cAMP kit, HTRF on CB2R (hCB2R)
# CB2R (hCB2R) [2] = target: T2, CB2R (hCB2R) (Homo sapiens, UniProt P34972, V36M)
# T2 construct: gene CNR2; full-length hCB2R cDNA in pcDNA3.1, transiently expressed in HEK-293T cells; no tag mentioned
# T2 sequence (P34972 whole entry V36M): as the sequence (P34972 whole entry A282F) above, with V36M, F282A counted along it
# Text: as §1
# CB2R (hCB2R) [3] = target: T3, CB2R (hCB2R) (Homo sapiens, UniProt P34972, V36F)
# T3 construct: gene CNR2; full-length hCB2R cDNA in pcDNA3.1, transiently expressed in HEK-293T cells; no tag mentioned
# T3 sequence (P34972 whole entry V36F): as the sequence (P34972 whole entry A282F) above, with V36F, F282A counted along it
# Text: as §1
# CB2R (hCB2R) [4] = target: T4, CB2R (hCB2R) (Homo sapiens, UniProt P34972)
# T4 construct: gene CNR2; full-length hCB2R cDNA in pcDNA3.1, transiently expressed in HEK-293T cells; no tag mentioned
# T4 sequence (P34972 whole entry): as the sequence (P34972 whole entry A282F) above, with F282A counted along it
# Text: as §1
# CB2R (hCB2R) [5] = target: T5, CB2R (hCB2R) (Homo sapiens, UniProt P34972, A282M)
# T5 construct: gene CNR2; full-length hCB2R cDNA in pcDNA3.1, transiently expressed in HEK-293T cells; no tag mentioned
# T5 sequence (P34972 whole entry A282M): as the sequence (P34972 whole entry A282F) above, with F282M counted along it
# Text: as §1
compound,measurement,setting,value
CCCC(C)(C)c1ccc2c(c1)OC(C)(C)[C@@H]1CC=C(C)C[C@@H]21 [JWH-133],EC50,CB2R (hCB2R) [1],316 nM
same,EC50,CB2R (hCB2R) [2],12.6 nM
same,EC50,CB2R (hCB2R) [3],158 nM
same,EC50,CB2R (hCB2R) [4],31.6 nM
same,EC50,CB2R (hCB2R) [5],15.8 nM
